# Data: US20090143430A1, “ERYTHROPOIETIN PRODUCTION ACCELERATOR” (Kowa Co., Ltd., priority 2002, published 2009)
# Counter-ions that a name gives are not always drawn.
# B1: IL-1β: "IL-1β (final concentration: 15 U/ml) ... of which EPO production suppressing action is known"; "mouse IL-1β (Roche Diagnostics)" in vivo (protein, UniProt P10749 118-269, looked up)
# Interleukin-1 beta: VPIRQLHYRLRDEQQKSLVLSDPYELKALHLNGQNINQQVIFSMSFVQGEPSNDKIPVALGLKGKNLYLSCVMKDGTPTLQLESVDPKQYPKKKMEKRFVFNKIEVKSKVEFESAEFPNWYISTSQAEHKPVFLGNNSGQDIIDFTMESVSS
# Key:
# Hep3B cells [1] = experiment: EPO protein produced by Hep3B cells under hypoxia (1% O2), ELISA (Test Example 1); type: cell-based; conditions: 1% O2, 24 hrs
# Protocol: (§1) Hep3B cells producing EPO under hypoxic condition were used. The cells were inoculated onto a 100 mm petri dish by 1.5-3.0×10^6. As a culture medium, 10 ml of Dulbecco's Modified Eagles' Medium (DMEM)/10% Fetal Calf Serum (FCS) was used. The next day, the culture medium was exchanged, and compound of Preparation Example 13 (final concentration: 100 nM) was added, then cells were cultured under 1% O2 at 37° C. for 24 hrs. Groups were prepared in which IL-1β (final concentration: 15 U/ml) or TNF-α (final concentration: 220 U/ml), of which EPO production suppressing action is known (Faquin W C, Schneider T J, Goldgerg M A, Blood, 79(8): 1987-94 (1992)), were used solely or in combination with compound of Preparation Example 13 (final concentration: 100 nM). […] The amount of EPO in the supernatant obtained after the culture was measured by ELISA (each group; n=3). The enhancer site and promoter site (144 bp) of a human EPO gene were linked to luciferase reporter vector, which was used for measuring the EPO promoter activity. The EPO promoter activity was evaluated as follows.
# (§2) The data obtained were analyzed and evaluated by Student's t-test.
# Hep3B cells [2] = experiment: EPO produced in Hep3B cell culture medium under 1% oxygen, ELISA kit (Test Example 2); type: cell-based; conditions: 24 hrs, 100 nM, control 8.1
# Protocol: Hep3B cells were inoculated by 1×10^6 on each of 6 cm dishes, and then cultured for 24 hrs. As a culture medium, 3 mL of DMEM/10% FCS was used. The culture medium was exchanged and the compounds of each of Preparation Examples 13, 23, 29, 36, and 114 were added such that the content thereof was 100 nM final concentration, and they were transferred into the atmosphere of 1% oxygen at 37° C. for further 24 hrs culture thereof. The supernatant of the culture was recovered, and the amount of EPO was measured by ELISA kit (product of Roche Diagnostics) (two cases in each group). Further, cell extract was prepared and protein amount was determined, and corrected it as production amount per protein amount. As a control, groups not containing the compounds are prepared.
# human EPO promoter = experiment: EPO promoter activity, luciferase reporter in Hep3B cells, 1% O2 vs 21% O2 (Test Example 1); type: cell-based; conditions: 24 hrs
# Protocol: as §1
# 1×10^6 Hep3B cells were inoculated on 30 mm petri dish (4 mL:DMEM/10% FCS), and a reporter gene (2 μg) as well as P-galactosidase gene (1 μg) as an internal standard were transfected into the cells by the lipofectin method. The next day, the culture medium was exchanged and the groups, whose group-composition was similar to the above (control group (containing no agents), IL-1β group (final concentration: 15 U/ml), TNF-α (final concentration: 220 U/ml), compound of Preparation Example 13 (final concentration: 100 nM), or a combination of compound of Preparation Example 13 and IL-1β or TNF-α) were cultured under 1% O2 or 21% O2 (as a control) at 37° C. for 24 hrs (for each group; n=4). The extract of the cells after cultured were prepared, then luciferase activity and β galactosidase activity were measured. The EPO promoter activity was expressed by the formula: […]
# as §2
# anemia model mice = experiment: In vivo mice anemia model with IL-1β or TNF-α suppressed EPO production (Test Example 3); design: species or system mouse
# Protocol: ICR mice (available from CLEA Japan Inc.) were made to be anemia by taking blood samples by 0.3 mL at a time from the orbital vein of the mouse by use of a heparin-coated microcapillary by 4 times in every 12 hours from 2 days before administering the agents. Further, 1.67×10^4 unit/day of mouse IL-1β (Roche Diagnostics) or 3.33×10^5 unit/day of mouse TNF-α (Roche Diagnostics) was injected intraperitoneally on day 0-3 (the first day of administration of agents was defined as […]) to induce a suppressed condition of EPO production. To these mice, Preparation Example 13 compound dissolved in 50% polyethylene glycol solution was administered orally by 1 or 3 mg/kg/day on day 0-5. As a control, 50% polyethylene glycol solution was administered (each group; n=7-15). On day 3 and 6, 0.3 mL of blood was collected, and hematocrit (Ht) value, hemoglobin (Hb) concentration (Celltac a: NIHON KOHDEN), EPO amount (ELISA kit: Roche Diagnostics) were measured. Also, the blood was stained by methylene-blue, and smears were prepared to calculate Reticulocytes value.
# [3] = day 3, IL-1β mice, compound 1 mg/kg/day
# [4] = day 3, IL-1β mice, compound 3 mg/kg/day
# [5] = day 3, IL-1β mice, compound oral 1 mg/kg/day
# [6] = day 3, IL-1β mice, compound oral 3 mg/kg/day
# [7] = day 3, TNF-α mice, compound 1 mg/kg/day
# [8] = day 3, TNF-α mice, compound 3 mg/kg/day
# [9] = day 3, TNF-α mice, compound oral 1 mg/kg/day
# [10] = day 3, TNF-α mice, compound oral 3 mg/kg/day
# [11] = day 6, IL-1β mice, compound oral 1 mg/kg/day
# [12] = day 6, IL-1β mice, compound oral 3 mg/kg/day
# [13] = day 6, TNF-α mice, compound oral 1 mg/kg/day
# [14] = day 6, TNF-α mice, compound oral 3 mg/kg/day
molecule,measurement,setting,value
"COc1ccc(N(Cc2cncc(-c3cc(OC)c(OC)c(OC)c3)c2)C2CCN(Cc3ccnc(-c4cc(OC)c(OC)c(OC)c4)c3)CC2)cc1 [Preparation Example 13, 4-[N-(4-methoxyphenyl)-N-[[5-(3,4,5-trimethoxyphenyl)pyridin-3-yl]methyl]amino]1-[[2-(3,4,5-trimethoxyphenyl)pyridin-4-yl]methyl]piperidine Trihydrochloride]",amount of the produced EPO protein relative to control,Hep3B cells [1]; compound 100 nM,twice as much as the control
same,amount of the produced EPO protein,Hep3B cells [1]; compound 100 nM alone,829.8±119.0 mU/mg protein
same,amount of the produced EPO protein,Hep3B cells [1]; compound 100 nM in combination with IL-1β 15 U/ml,395.0±72.6 mU/mg protein
same,amount of the produced EPO protein,Hep3B cells [1]; compound 100 nM in combination with TNF-α 220 U/ml,284.8±24.2 mU/mg protein
same,Increasing action of EPO production (amount of EPO per protein amount),Hep3B cells [2],18.2 mU/mg Protein
same,human EPO promoter activity (HI),human EPO promoter; compound 100 nM alone,46.1±5.9 fold
same,human EPO promoter activity (HI),human EPO promoter; compound 100 nM with IL-1β 15 U/ml,45.5±7.1 fold
same,human EPO promoter activity (HI),human EPO promoter; compound 100 nM with TNF-α 220 U/ml,49.5±5.4 fold
same,EPO amount in serum,anemia model mice; [3],41.8±28.3 mU/mL
same,reticulocyte value,anemia model mice; [3],36.1±4.5%
same,EPO amount in serum,anemia model mice; [4],58.9±21.1 mU/mL
same,reticulocyte value,anemia model mice; [4],38.1±8.1%
same,Hb amount,anemia model mice; [5],12.7 ± 0.7 g/dL
same,Ht value,anemia model mice; [5],37.5±2.5%
same,Hb amount,anemia model mice; [6],12.6 ± 1.0 g/dL
same,Ht value,anemia model mice; [6],37.5±3.1%
same,EPO amount in serum,anemia model mice; [7],61.4±70.4 mU/mL
same,reticulocyte value,anemia model mice; [7],29.1±4.7%
same,EPO amount in serum,anemia model mice; [8],64.7±92.2 mU/mL
same,reticulocyte value,anemia model mice; [8],28.9±4.5%
same,Hb amount,anemia model mice; [9],12.8 ± 0.6 g/dL
same,Ht value,anemia model mice; [9],38.8±2.0%
same,Hb amount,anemia model mice; [10],13.1 ± 0.8 g/dL
same,Ht value,anemia model mice; [10],40.0±2.7%
same,EPO amount in serum,anemia model mice; [11],22.2±32.8 mU/mL
same,Hb amount,anemia model mice; [11],14.1 ± 1.1 g/dL
same,Ht value,anemia model mice; [11],42.6±2.5%
same,reticulocyte value,anemia model mice; [11],27.1±2.5%
same,EPO amount in serum,anemia model mice; [12],37.1±31.1 mU/mL
same,Hb amount,anemia model mice; [12],14.0 ± 0.9 g/dL
same,Ht value,anemia model mice; [12],43.3±2.8%
same,reticulocyte value,anemia model mice; [12],30.4±4.0%
same,EPO amount in serum,anemia model mice; [13],57.4±23.9 mU/mL
same,Hb amount,anemia model mice; [13],14.0 ± 0.6 g/dL
same,Ht value,anemia model mice; [13],43.3±2.5%
same,reticulocyte value,anemia model mice; [13],23.3±3.3%
same,EPO amount in serum,anemia model mice; [14],69.9±37.8 mU/mL
same,Hb amount,anemia model mice; [14],13.8 ± 0.5 g/dL
same,Ht value,anemia model mice; [14],43.2±2.2%
same,reticulocyte value,anemia model mice; [14],26.8±7.5%
"COc1cc(OC)cc(N(Cc2ccnc(-c3cc(OC)c(OC)c(OC)c3)c2)C2CCN(Cc3ccnc(-c4cc(OC)c(OC)c(OC)c4)c3)CC2)c1 [Preparation Example 23, 4-[N-(3,5-dimethoxyphenyl)-N-[[2-(3,4,5-trimethoxyphenyl)pyridin-4-yl]methyl]amino]-1-[[2-(3,4,5-trimethoxyphenyl)pyridin-4-yl]methyl]piperidine Trihydrochloride]",Increasing action of EPO production (amount of EPO per protein amount),Hep3B cells [2],13.9 mU/mg Protein
"COc1cc(-c2cc(CN3CCC(N(Cc4ccnc(-c5cc(OC)c(OC)c(OC)c5)c4)c4ccc5c(c4)OCO5)CC3)ccn2)cc(OC)c1OC [Preparation Example 29, 4-[N-(3,4-methylenedioxyphenyl)-N-[[2-(3,4,5-trimethoxyphenyl)pyridin-4-yl]methyl]amino]-1-[[2-(3,4,5-trimethoxyphenyl)pyridin-4-yl]methyl]piperidine Trihydrochloride]",Increasing action of EPO production (amount of EPO per protein amount),Hep3B cells [2],10.5 mU/mg Protein
"COc1cc(-c2cc(CN3CCC(N(C)Cc4ccnc(-c5cc(OC)c(OC)c(OC)c5)c4)CC3)ccn2)cc(OC)c1OC [Preparation Example 36, 4-[N-methyl-N-[[2-(3,4,5-trimethoxyphenyl)pyridin-4-yl]methyl]amino]-1-[[2-(3,4,5-trimethoxyphenyl)pyridin-4-yl]methyl]piperidine Tetrahydrochloride]",Increasing action of EPO production (amount of EPO per protein amount),Hep3B cells [2],10.0 mU/mg Protein
COc1cc(-c2cncc(CN(c3ccc(SC)cc3)C3CCN(Cc4ccnc(-c5cc(OC)c(OC)c(OC)c5)c4)CC3)c2)cc(OC)c1OC [Preparation Example 114],Increasing action of EPO production (amount of EPO per protein amount),Hep3B cells [2],14.9 mU/mg Protein
TNF-α,amount of the produced EPO protein,Hep3B cells [1]; TNF-α 220 U/ml alone,180.8±24.6 mU/mg protein
same,human EPO promoter activity (HI),human EPO promoter; TNF-α 220 U/ml alone,20.7±4.1 fold
same,Hb amount,"anemia model mice; day 3, TNF-α i.p. alone (control 13.8±0.6)",12.6 ± 0.7 g/dL
same,EPO amount in serum,"anemia model mice; day 3, TNF-α i.p. alone (control 23.7±31.0)",2.7±4.6 mU/mL
same,reticulocyte value,"anemia model mice; day 3, TNF-α i.p. alone (control 32.1±4.4)",14.2±3.4%
same,Ht value,"anemia model mice; day 3, TNF-α i.p. alone (control 42.2±3.6)",38.3±2.5%
same,Hb amount,"anemia model mice; day 6, TNF-α i.p. alone (control 14.8±0.8)",13.1 ± 0.5 g/dL
same,reticulocyte value,"anemia model mice; day 6, TNF-α i.p. alone (control 16.3±3.1)",9.4±3.3%
same,EPO amount in serum,"anemia model mice; day 6, TNF-α i.p. alone (control 24.8±33.8)",3.3±6.0 mU/mL
same,Ht value,"anemia model mice; day 6, TNF-α i.p. alone (control 46.4±2.9)",41.6±1.8%
B1,amount of the produced EPO protein,Hep3B cells [1]; IL-1β 15 U/ml alone,233.3±19.4 mU/mg protein
same,human EPO promoter activity (HI),human EPO promoter; IL-1β 15 U/ml alone,19.9±6.5 fold
same,Hb amount,"anemia model mice; day 3, IL-1β i.p. alone (control 13.8±0.6)",12.3 ± 0.8 g/dL
same,EPO amount in serum,"anemia model mice; day 3, IL-1β i.p. alone (control 23.7±31.0)",5.9±14.3 mU/mL
same,reticulocyte value,"anemia model mice; day 3, IL-1β i.p. alone (control 32.1±4.4)",15.4±3.5%
same,Ht value,"anemia model mice; day 3, IL-1β i.p. alone (control 42.2±3.6)",36.0±3.0%
same,Hb amount,"anemia model mice; day 6, IL-1β i.p. alone (control 14.8±0.8)",13.5 ± 0.5 g/dL
same,reticulocyte value,"anemia model mice; day 6, IL-1β i.p. alone (control 16.3±3.1)",12.2±2.0%
same,EPO amount in serum,"anemia model mice; day 6, IL-1β i.p. alone (control 24.8±33.8)",2.9±5.0 mU/mL
same,Ht value,"anemia model mice; day 6, IL-1β i.p. alone (control 46.4±2.9)",40.9±1.5%
